The assay addresses T1, MDM2 (Homo sapiens, UniProt Q00987).
T1 construct: MDM2 (Abcam, ab167941)
Description: fluorescence polarization competition with FITC-p53 peptide. Format: binding. An excerpt: fluorescence polarization competition with FITC-p53 peptide on MDM2 | analysis of the interaction of N201 with MDM2 instead of with fluorescein isothiocyanate (FITC)–p53.

T1 sequence (Q00987 whole entry): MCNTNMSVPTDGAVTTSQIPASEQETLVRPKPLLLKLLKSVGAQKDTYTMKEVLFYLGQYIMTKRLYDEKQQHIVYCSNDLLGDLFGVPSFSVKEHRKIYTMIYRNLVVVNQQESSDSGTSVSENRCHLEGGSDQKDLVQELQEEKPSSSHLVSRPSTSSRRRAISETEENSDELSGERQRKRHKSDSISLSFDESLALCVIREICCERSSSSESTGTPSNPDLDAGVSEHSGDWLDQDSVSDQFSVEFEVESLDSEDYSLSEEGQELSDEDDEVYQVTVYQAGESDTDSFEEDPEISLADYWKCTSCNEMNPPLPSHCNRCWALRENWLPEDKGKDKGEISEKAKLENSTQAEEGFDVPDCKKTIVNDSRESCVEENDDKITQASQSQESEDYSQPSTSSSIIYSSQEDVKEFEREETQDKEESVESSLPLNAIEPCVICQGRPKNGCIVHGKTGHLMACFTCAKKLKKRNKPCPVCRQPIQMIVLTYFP

Turning to `COc1ccc(C2=NC(c3ccc(Cl)cc3)C(c3ccc(Cl)cc3)N2C(=O)N2CCN(CCO)CC2)c(OC(C)C)c1` (centres unmarked) [N201], the IC50 was found to be 0.13 µM.

As to `COc1ccc(C2=NC(c3ccc(Cl)cc3)C(c3ccc(Cl)cc3)N2C(=O)N2CCN(CCO[C@@H]3O[C@H](CO)[C@H](O)[C@H](O)[C@H]3O)CC2)c(OC(C)C)c1` (some centres unmarked) [N201-gal], the IC50 was 0.2 µM.

The values above are taken from article PMC12484856, “A Self-Assembling Senolytic Prodrug with Enhanced Bioavailability and Selective Activation for Targeting Senescent Retinal Pigment Epithelium” (Biomaterials Research, 2025).
